Source: ChEMBL document CHEMBL2151015, “Discovery of a potent, selective, and orally bioavailable acidic 11β-hydroxysteroid dehydrogenase type 1 (11β-HSD1) inhibitor: discovery of 2-[(3S)-1-[5-(cyclohexylcarbamoyl)-6-propylsulfanylpyridin-2-yl]-3-piperidyl]acetic acid (AZD4017)” (J Med Chem, 2012)
≈ marks a conversion by molar mass, not a printed value. Values belong to the compound of their own block, whether it stands above or below them.

How the values were obtained:
[1] = Octanol-buffer partition coefficient, log D of the compound after 30 mins by shake flask method at pH 7.4
[2] = Fraction unbound in rat plasma after 18 to 19 hrs by equilibrium dialysis; assay type: ADME, cell-free
[3] = Intrinsic clearance in rat hepatocytes assessed per 10^6 cells
[4] = Oral bioavailability in rat; assay type: ADME, organism-based; conditions: in vivo
in vivo = conditions: rat
[5] = Aqueous solubility of the compound after 24 hrs by LC-UV analysis at pH 7.4; assay type: physicochemical; conditions: aqueous medium
[6] = Apparent permeability across human Caco2 cells; assay type: ADME, cell-based; conditions: Caco-2
[7] = Cmax in po dosed Sprague-Dawley rat measured up to 24 hrs; assay type: ADME, organism-based; parameters: route oral; conditions: in vivo
[8] = Cmax in po dosed Sprague-Dawley rat pre-dosed with ABT administered 2 hrs […] measured up to 24 hrs; assay type: ADME, organism-based; parameters: route oral; conditions: in vivo
[9] = AUC (0 to t) in po dosed Sprague-Dawley rat measured up to 24 hrs; assay type: ADME, organism-based; parameters: time < 24 hr, route oral; conditions: plasma
[10] = AUC (0 to t) in po dosed Sprague-Dawley rat pre-dosed with ABT administered 2 hrs […] measured up to 24 hrs; assay type: ADME, organism-based; parameters: time < 24 hr, route oral; conditions: plasma
[11] = Clearance in po dosed Sprague-Dawley rat measured up to 24 hrs; conditions: in vivo
[12] = Clearance in po dosed Sprague-Dawley rat pre-dosed with ABT administered 2 hrs prior to ABT administration measured up to 24 hrs; conditions: in vivo
[13] = biological target: 11-beta-hydroxysteroid dehydrogenase 1 (Homo sapiens, UniProt P28845); assay: biochemical
Chain of 11-beta-hydroxysteroid dehydrogenase 1 (P28845 whole entry): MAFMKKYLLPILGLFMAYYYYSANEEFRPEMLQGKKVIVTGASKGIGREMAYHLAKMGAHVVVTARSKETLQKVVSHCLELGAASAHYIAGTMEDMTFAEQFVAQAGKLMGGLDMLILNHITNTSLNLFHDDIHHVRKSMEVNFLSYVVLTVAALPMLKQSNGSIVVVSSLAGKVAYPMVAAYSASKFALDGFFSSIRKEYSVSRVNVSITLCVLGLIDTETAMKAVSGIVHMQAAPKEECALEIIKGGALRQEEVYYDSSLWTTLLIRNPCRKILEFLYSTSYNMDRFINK
Description: Inhibition of N-terminal His6-tagged full length human 11betaHSD1 expressed in baculovirus infected cells using cortisone as substrate after 25 mins by HTRF assay

- logD at 0.5 h ([1]; octanol/buffer): 1.8
- fraction unbound [2]: 0.003
- hepatocyte CLint [3]: < 2 µL/min/1e6 cells
SMILES: CCCSc1nc(Oc2ccc(CC(=O)O)cc2)ccc1C(=O)NC1CCCCC1

- logD at 0.5 h ([1]; octanol/buffer): 3.4
- fraction unbound [2]: 0.1
- hepatocyte CLint [3]: > 350 µL/min/1e6 cells
- bioavailability [4]: 0%
- clearance (in vivo): 48 mL/min/kg
SMILES: CCCSc1ncccc1C(=O)N(C)C1CCCCC1

- logD at 0.5 h ([1]; octanol/buffer): 2.2
- fraction unbound [2]: 0.006
- hepatocyte CLint [3]: 8 µL/min/1e6 cells
- bioavailability [4]: 79%
- clearance (in vivo): 1 mL/min/kg
SMILES: CCCSc1nc(N2CCC[C@H](CC(=O)O)C2)ccc1C(=O)NC1CCCCC1

- logD at 0.5 h ([1]; octanol/buffer): 1.6
- fraction unbound [2]: 0.06
- hepatocyte CLint [3]: < 2 µL/min/1e6 cells
- bioavailability [4]: 57%
- clearance (in vivo): 4 mL/min/kg
SMILES: CCCCc1nc(N2CCC[C@@H](CC(=O)O)C2)ccc1C(=O)NC1CCCCC1

- logD at 0.5 h ([1]; octanol/buffer): 2.3
- fraction unbound [2]: 0.029
- hepatocyte CLint [3]: 7 µL/min/1e6 cells
- bioavailability [4]: 72%
- clearance (in vivo): 4 mL/min/kg
SMILES: CCCNc1nc(N2CCC[C@@H](CC(=O)O)C2)ccc1C(=O)NC1CCCCC1

- logD at 0.5 h ([1]; octanol/buffer): 3.2
- fraction unbound [2]: 0.13
- solubility at 24 h [5]: 82 µM (≈ 22.8 µg/mL)
- Papp [6]: 27 ×10⁻⁶ cm/s
- bioavailability [4]: 0%
- Cmax [7]: 39 ng/mL
- Cmax [8]: 514 ng/mL
- AUC(0-t) at 24 h [9]: 80 ng·h/mL
- AUC(0-t) at 24 h [10]: 2510 ng·h/mL
SMILES: CCCSc1ncccc1C(=O)NC1CCCCC1

- fraction unbound [2]: 0.029
- hepatocyte CLint [3]: < 2 µL/min/1e6 cells
- bioavailability [4]: > 100%
- clearance (in vivo): 6 mL/min/kg
SMILES: CCCSc1nc(N[C@H]2CC[C@H](C(=O)O)CC2)ccc1C(=O)NC1CCCCC1

- logD at 0.5 h ([1]; octanol/water): 2.3
- fraction unbound [2]: 0.018
- hepatocyte CLint [3]: 12 µL/min/1e6 cells
- bioavailability [4]: 39%
- clearance (in vivo): 15 mL/min/kg
SMILES: CCCN(C)c1nc(N2CCC[C@@H](CC(=O)O)C2)ccc1C(=O)NC1CCCCC1

- logD at 0.5 h ([1]; octanol/water): 2.5
- fraction unbound [2]: 0.2
- hepatocyte CLint [3]: 140 µL/min/1e6 cells
- bioavailability [4]: 0%
- clearance (in vivo): 24 mL/min/kg
SMILES: CCCSc1ncccc1C(=O)N(C)[C@@H]1[C@@H]2CC3C[C@H]1C[C@@](O)(C3)C2

- logD at 0.5 h ([1]; octanol/buffer): 2
- fraction unbound [2]: 0.032
- hepatocyte CLint [3]: 6 µL/min/1e6 cells
- bioavailability [4]: 90%
- clearance (in vivo): 4 mL/min/kg
SMILES: CCCSc1nc(N2CCC(CC(=O)O)CC2)ccc1C(=O)NC1CCCCC1

- logD at 0.5 h ([1]; octanol/buffer): 1.4
- fraction unbound [2]: 0.019
- hepatocyte CLint [3]: 10 µL/min/1e6 cells
- bioavailability [4]: > 100%
- clearance (in vivo): 12 mL/min/kg
SMILES: CCCSc1nc(N2CCCCC2C(=O)O)ccc1C(=O)NC1CCCCC1 (stereo not given)

- logD at 0.5 h ([1]; octanol/buffer): < 0.5
- fraction unbound [2]: 0.41
- hepatocyte CLint [3]: < 2 µL/min/1e6 cells
- bioavailability [4]: 81%
- clearance (in vivo): 2.5 mL/min/kg
- IC50 [13]: > 30 µM
SMILES: CCCSc1ncccc1C(=O)N[C@H]1CC[C@@H](C(=O)O)CC1

Continued, compound first:

SMILES: CCCSc1ncccc1C(=O)N(C)[C@H]1[C@@H]2CC3C[C@H]1C[C@@](O)(C3)C2
- logD at 0.5 h ([1]; octanol/water): 2.5
- fraction unbound [2]: 0.41
- hepatocyte CLint [3]: 140 µL/min/1e6 cells

SMILES: CCCSc1nc(N2CCC(C(=O)O)CC2)ccc1C(=O)NC1CCCCC1
- logD at 0.5 h ([1]; octanol/water): 1.6
- fraction unbound [2]: 0.03
- hepatocyte CLint [3]: < 2 µL/min/1e6 cells
- bioavailability [4]: > 100%
- clearance (in vivo): 8 mL/min/kg

SMILES: CCCSc1ncccc1C(=O)N1CCCC1c1ccncc1 (stereo not given)
- logD at 0.5 h ([1]; octanol/buffer): 2
- fraction unbound [2]: 0.13
- hepatocyte CLint [3]: 120 µL/min/1e6 cells
- bioavailability [4]: 0%
- clearance (in vivo): 39 mL/min/kg

SMILES: CCCSc1ncccc1C(=O)N[C@@H]1[C@@H]2CC3C[C@H]1C[C@@](O)(C3)C2
- logD at 0.5 h ([1]; octanol/buffer): 2.3
- fraction unbound [2]: > 0.5
- hepatocyte CLint [3]: 49 µL/min/1e6 cells
- bioavailability [4]: 11%
- clearance (in vivo): 110 mL/min/kg

SMILES: CCCSc1nc(N2CCCC(C(=O)O)C2)ccc1C(=O)NC1CCCCC1 (stereo not given)
- logD at 0.5 h ([1]; octanol/buffer): 1.7
- fraction unbound [2]: 0.023
- hepatocyte CLint [3]: 6 µL/min/1e6 cells
- bioavailability [4]: 45%
- clearance (in vivo): 4 mL/min/kg

SMILES: CCCSc1ncccc1C(=O)NC1CCC(F)(F)CC1
- fraction unbound [2]: 0.29
- hepatocyte CLint [3]: 130 µL/min/1e6 cells
- bioavailability [4]: 0%
- clearance (in vivo): 30 mL/min/kg

SMILES: CCCSc1nc(Oc2cccc(CCC(=O)O)c2)ccc1C(=O)NC1CCCCC1
- logD at 0.5 h ([1]; octanol/buffer): 1.7
- fraction unbound [2]: 0.006
- hepatocyte CLint [3]: 15 µL/min/1e6 cells

SMILES: CCCOc1nc(N2CCC[C@@H](CC(=O)O)C2)ccc1C(=O)NC1CCCCC1
- logD at 0.5 h ([1]; octanol/buffer): 2.8
- fraction unbound [2]: 0.006
- hepatocyte CLint [3]: 9 µL/min/1e6 cells
- bioavailability [4]: > 100%
- clearance (in vivo): 9 mL/min/kg

SMILES: CCCSc1nc(NC[C@H]2CC[C@H](C(=O)O)CC2)ccc1C(=O)NC1CCCCC1
- logD at 0.5 h ([1]; octanol/buffer): 2.6
- fraction unbound [2]: 0.015
- hepatocyte CLint [3]: 8 µL/min/1e6 cells
- bioavailability [4]: 81%
- clearance (in vivo): 8 mL/min/kg

SMILES: O=S(=O)(Cc1c(F)cccc1F)N1CCN(c2ncccc2C(F)(F)F)CC1
- logD at 0.5 h ([1]; octanol/buffer): 3.9
- fraction unbound [2]: 0.005
- solubility at 24 h [5]: 2 µM (≈ 0.843 µg/mL)
- hepatocyte CLint [3]: 272 µL/min/1e6 cells
- Papp [6]: 10 ×10⁻⁶ cm/s
- bioavailability [4]: 0%
- CL/F at 24 h [11]: 20 mL/min/kg
- CL/F [12]: 14 mL/min/kg

SMILES: CCCSc1ncccc1C(=O)N(C)C1CCOCC1
- logD at 0.5 h ([1]; octanol/buffer): 1.6
- fraction unbound [2]: 0.49
- hepatocyte CLint [3]: 90 µL/min/1e6 cells
- bioavailability [4]: 0%
- clearance (in vivo): 46 mL/min/kg
